Measurements reported in paper PMC6299220 (mBio, 2018).
Converted amounts (≈) assume the structure as drawn. Like-named read-outs stand apart in the source and are kept apart here.

Tests used:
M. tuberculosis H37Rv = test: microbe, parasite or virus in culture; type: cell-based, Mycobacterium tuberculosis
physchem = details: pH 7.4, aqueous buffer, kinetic from dmso stock
in vitro [1] = details: African green monkey
in vitro [2] = details: mouse, microsomes
[3] = mouse, microsomes
[4] = Mouse liver microsomal (MLM) stability; details: mouse, liver microsomes
KasA = KasA (Mycobacterium tuberculosis, UniProt P9WQD9); test: Microscale thermophoresis (MST) binding assay; details: 49.5 nM labeled KasA
KasA, sequence (P9WQD9 whole entry): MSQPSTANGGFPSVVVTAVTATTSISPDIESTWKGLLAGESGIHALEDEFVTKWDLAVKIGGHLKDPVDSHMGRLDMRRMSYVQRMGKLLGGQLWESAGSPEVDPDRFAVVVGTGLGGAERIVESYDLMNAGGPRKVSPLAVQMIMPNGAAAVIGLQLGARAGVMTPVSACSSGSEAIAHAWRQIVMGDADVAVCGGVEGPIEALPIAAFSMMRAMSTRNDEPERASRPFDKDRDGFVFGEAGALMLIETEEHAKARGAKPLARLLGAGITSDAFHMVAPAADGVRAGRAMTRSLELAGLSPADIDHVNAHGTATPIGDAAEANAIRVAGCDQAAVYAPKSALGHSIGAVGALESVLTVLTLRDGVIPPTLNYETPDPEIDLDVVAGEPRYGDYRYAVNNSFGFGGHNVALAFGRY

[5] = Mycobacterium tuberculosis, H37RV
[6] = MLM stability t1/2 without NADPH

SMILES | MIC (M. tuberculosis H37Rv; [5]) | CC50 (in vitro [1]) | other results
CCCCS(=O)(=O)Nc1ccc2cnn(CC)c2c1 [5a-3, N-(1-Ethyl-1H-indazol-6-yl)butane-1-sulfonamide] | 6.2 µM (≈ 1.74 µg/mL) | 44.4 µM | solubility kinetic (physchem): 472 µM (≈ 133 µg/mL); half-life (in vitro [2]; MLM stability t1/2): 1.29 min; half-life (in vitro [2]; [6]): > 3060 min; MLM stability clint [3]: 536 μl/mi/mg protein
CCCCS(=O)(=O)Nc1ccc2cnn(CCC)c2c1 [5a-4, N-(1-Propyl-1H-indazol-6-yl)butane-1-sulfonamide] | > 100 µM | – | solubility kinetic (physchem): 130 µM (≈ 38.4 µg/mL); half-life (in vitro [2]; MLM stability t1/2): 0.753 min; half-life (in vitro [2]; [6]): > 3060 min; MLM stability clint [3]: 921 μl/mi/mg protein
CCCCS(=O)(=O)Nc1ccc2cnn(C(C)C)c2c1 [5a-5, N-(1-Isoproply-1H-indazol-6-yl)butane-1-sulfonamide] | > 100 µM | – | solubility kinetic (physchem): > 500 µM; half-life (in vitro [2]; MLM stability t1/2): 0.878 min; half-life (in vitro [2]; [6]): > 3060 min; MLM stability clint [3]: 789 μl/mi/mg protein
CCCCS(=O)(=O)Nc1ccc2cnn(-c3ccccc3)c2c1 [5a-6, N-(1-Phenyl-1H-indazol-6-yl)butane-1-sulfonamide] | > 100 µM | – | solubility kinetic (physchem): 33.7 µM (≈ 11.1 µg/mL); half-life (in vitro [2]; MLM stability t1/2): 0.505 min; half-life (in vitro [2]; [6]): > 3060 min; MLM stability clint [3]: 1,370 μl/mi/mg protein
CCCCS(=O)(=O)Nc1ccc2cnn(Cc3ccccc3)c2c1 [5a-7, N-(1-Benzyl-1H-indazol-6-yl)butane-1-sulfonamide] | > 100 µM | – | solubility kinetic (physchem): 33.8 µM (≈ 11.6 µg/mL); half-life (in vitro [2]; MLM stability t1/2): 2.88 min; half-life (in vitro [2]; [6]): > 3060 min; MLM stability clint [3]: 241 μl/mi/mg protein
Cn1ncc2ccc(NS(C)(=O)=O)cc21 [5a-8, N-(1-Methyl-1H-indazol-6-yl)methanesulfonamide] | > 100 µM | – | –
CCS(=O)(=O)Nc1ccc2cnn(C)c2c1 [5a-9, N-(1-Methyl-1H-indazol-6-yl)ethanesulfonamide] | > 100 µM | – | –
CCCS(=O)(=O)Nc1ccc2cnn(C)c2c1 [5a-10, N-(1-Methyl-1H-indazol-6-yl)propane-1-sulfonamide] | 12.5 µM (≈ 3.17 µg/mL) | – | –
CC(C)S(=O)(=O)Nc1ccc2cnn(C)c2c1 [5a-11, N-(1-Methyl-1H-indazol-6-yl)propane-2-sulfonamide] | > 100 µM | – | –
CCCCCS(=O)(=O)Nc1ccc2cnn(C)c2c1 [5a-12, N-(1-Methyl-1H-indazol-6-yl)pentane-1-sulfonamide] | 0.2 µM (≈ 0.0563 µg/mL) | > 100 µM | improvement in MIC/whole-cell activity over DG167 (M. tuberculosis H37Rv): 2 fold
CCCCCCS(=O)(=O)Nc1ccc2cnn(C)c2c1 [5a-13, N-(1-Methyl-1H-indazol-6-yl)hexane-1-sulfonamide] | > 100 µM | > 170 µM | –
Cn1ncc2ccc(NS(=O)(=O)CCCCC#N)cc21 [5a-14, 4-Cyano-N-(1-methyl-1H-indazol-6-yl)butane-1-sulfonamide] | 3.1 µM (≈ 0.906 µg/mL) | > 100 µM | –
COCCCCS(=O)(=O)Nc1ccc2cnn(C)c2c1 [5a-15, 4-Methoxy-N-(1-methyl-1H-indazol-6-yl)butane-1-sulfonamide] | > 100 µM | > 100 µM | MIC (M. tuberculosis H37Rv): >100 µM
COCCC(C)CCS(=O)(=O)Nc1ccc2cnn(C)c2c1 (centres unmarked) [5a-16, 5-Methoxy-3-methyl-N-(1-methyl-1H-indazol-6-yl)pentane-1-sulfonamide] | > 100 µM | – | –
CCCC(CC)S(=O)(=O)Nc1ccc2cnn(C)c2c1 (centres unmarked) [5a-17, N-(1-Methyl-1H-indazol-6-yl)hexane-3-sulfonamide] | > 100 µM | > 100 µM | –
CCCC(C)S(=O)(=O)Nc1ccc2cnn(C)c2c1 (centres unmarked) [5a-18, N-(1-Methyl-1H-indazol-6-yl)pentane-2-sulfonamide] | > 100 µM | > 100 µM | –
CC(C)CCCS(=O)(=O)Nc1ccc2cnn(C)c2c1 [5a-19, 4-Methyl-N-(1-methyl-1H-indazol-6-yl)pentane-1-sulfonamide] | > 100 µM | – | –
Cc1ccc(S(=O)(=O)Nc2ccc3cnn(C)c3c2)cc1 [5a-20, 4-Methyl-N-(1-methyl-1H-indazol-6-yl)benzenesulfonamide] | 50 µM (≈ 15.1 µg/mL) | – | –
Cn1ncc2ccc(NS(=O)(=O)Cc3ccccc3)cc21 [5a-21, N-(1-Methyl-1H-indazol-6-yl)-1-phenylmethanesulfonamide] | > 100 µM | – | –
Cn1ncc2ccc(NS(=O)(=O)CCc3ccccc3)cc21 [5a-22, N-(1-Methyl-1H-indazol-6-yl)-2-phenylethane-1-sulfonamide] | > 100 µM | 19.8 µM | –
Cn1ncc2ccc(NS(=O)(=O)C3CC3)cc21 [5a-23, N-(1-Methyl-1H-indazol-6-yl)cyclopropanesulfonamide] | > 100 µM | – | –
Cn1ncc2ccc(NS(=O)(=O)C3CCC3)cc21 [5a-24, N-(1-Methyl-1H-indazol-6-yl)cyclobutanesulfonamide] | > 100 µM | – | –
Cn1ncc2ccc(NS(=O)(=O)C3CCCC3)cc21 [5a-25, N-(1-Methyl-1H-indazol-6-yl)cyclopentanesulfonamide] | > 100 µM | – | –

SMILES | MIC (M. tuberculosis H37Rv; [5]) | CC50 (in vitro [1]) | other results
Cn1ncc2ccc(NS(=O)(=O)C3CCCCC3)cc21 [5a-26, N-(1-Methyl-1H-indazol-6-yl)cyclohexanesulfonamide] | 12.5 µM (≈ 3.67 µg/mL) | – | –
Cn1ncc2ccc(NS(=O)(=O)C3CCC(C(F)(F)F)CC3)cc21 (centres unmarked) [5a-27, N-(1-Methyl-1H-indazol-6-yl)-4-(trifluoromethyl)cyclohexane-1-sulfonamide] | > 100 µM | – | –
Cn1ncc2ccc(NS(=O)(=O)N3CCCCC3)cc21 [5a-28, N-(1-Methyl-1H-indazol-6-yl)piperidine-1-sulfonamide] | > 100 µM | – | –
Cn1ncc2ccc(NS(=O)(=O)CC3CCCCC3)cc21 [5a-29, 1-Cyclohexyl-N-(1-methyl-1H-indazol-6-yl)methanesulfonamide] | > 100 µM | – | –
[2H]C([2H])([2H])n1ncc2ccc(NS(=O)(=O)CCCC)cc21 [5a-30, N-(1-(Methyl-d3)-1H-indazol-6-yl)butane-1-sulfonamide] | – | 180 µM | solubility kinetic (physchem): > 500 µM; half-life (in vitro [2]): 16.8 min; half-life (in vitro [2]; [6]): > 3060 min; MLM stability clint [3]: 41.3 μl/mi/mg protein
[2H]C([2H])([2H])n1ncc2ccc(NS(=O)(=O)CCCCC)cc21 [5a-31, N-(1-(Methyl-d3)-1H-indazol-6-yl)pentane-1-sulfonamide] | 0.2 µM (≈ 0.0569 µg/mL) | > 100 µM | improvement in MIC/whole-cell activity over DG167 (M. tuberculosis H37Rv): 2 fold
[2H]C([2H])([2H])n1ncc2ccc(NS(=O)(=O)CCCCOC)cc21 [5a-32, 4-Methoxy-N-(1-(methyl-d3)-1H-indazol-6-yl)butane-1-sulfonamide] | > 100 µM | > 100 µM | –
CCCCNC(=S)Nc1ccc2cnn(C)c2c1 [5b-1, 1-Butyl-3-(1-methyl-1H-indazol-6-yl)thiourea] | 3.1 µM (≈ 0.813 µg/mL) | 25 µM | solubility kinetic (physchem): 131 µM (≈ 34.4 µg/mL); half-life (in vitro [2]; MLM stability t1/2): 1.17 min; half-life (in vitro [2]; [6]): > 3060 min; MLM stability clint [3]: 595 μl/mi/mg protein
CCCCNC(=O)Nc1ccc2cnn(C)c2c1 [5b-2, 1-Butyl-3-(1-methyl-1H-indazol-6-yl)urea] | > 100 µM | – | –
CCC(=O)Nc1ccc2cnn(C)c2c1 [5c-1, N-(1-methyl-1H-indazol-6-yl)propionamide] | > 100 µM | – | solubility kinetic (physchem): 472 µM (≈ 95.9 µg/mL); half-life (in vitro [2]; MLM stability t1/2): 1.29 min; MLM stability clint [3]: 536 μl/mi/mg protein
CCCCC(=O)Nc1ccc2cnn(C)c2c1 [5c-2, N-(1-Methyl-1H-indazol-6-yl)pentanamide] | > 100 µM | – | solubility kinetic (physchem): > 500 µM; half-life (in vitro [2]; MLM stability t1/2): 0.668 min; half-life (in vitro [2]; [6]): 13.1 min; MLM stability clint [3]: 1,040 μl/mi/mg protein
CCOC(=O)Nc1ccc2cnn(C)c2c1 [5d-1, Ethyl (1-methyl-1H-indazol-6-yl)carbamate] | > 100 µM | 110 µM | solubility kinetic (physchem): > 500 µM; half-life (in vitro [2]; MLM stability t1/2): 1.16 min; MLM stability clint [3]: 597 μl/mi/mg protein
CCCOC(=O)Nc1ccc2cnn(C)c2c1 [5d-2, n-propyl (1-methyl-1H-indazol-6-yl)carbamate] | > 100 µM | 6.7 µM | –
CCCCOC(=O)Nc1ccc2cnn(C)c2c1 [5d-3, Butyl (1-methyl-1H-indazol-6-yl)carbamate] | > 100 µM | 25 µM | –
CCCCS(=O)(=O)N(C)c1ccc2cnn(C)c2c1 [5e, N-Methyl-N-(1-methyl-1H-indazol-6-yl)butane-1-sulfonamide] | > 100 µM | – | –
CCCCS(=O)(=O)Nc1ccc2[nH]nc(C)c2c1 [5g, N-(3-Methyl-1H-indazol-5-yl)butane-1-sulfonamide] | 0.2 µM (≈ 0.0535 µg/mL) | 94 µM | half-life ([4]; MLM stability t1/2, with NADPH): 11.5 min; half-life ([4]; MLM stability t1/2 without NADPH, without NADPH): 141 min; Kd (KasA): 46.5 ± 18.7 nM; improvement in MIC/whole-cell activity over DG167 (M. tuberculosis H37Rv): 2 fold; MLM stability clint [3]: 60.3 μl/mi/mg protein
COc1nc2ccc(Br)cc2cc1[C@@H](c1ccccc1)[C@@](O)(CCN(C)C)c1cccc2ccccc12 [BDQ, bedaquiline] | 1 µM (≈ 0.556 µg/mL) | – | –
CC[C@@H](CO)NCCN[C@@H](CC)CO [EMB, ethambutol] | 0.78 µM (≈ 0.159 µg/mL) | – | –
CCc1cc(C(N)=S)ccn1 [ETH, ethionamide] | 25 µM (≈ 4.16 µg/mL) | – | –
COc1c(N2C[C@@H]3CCCN[C@@H]3C2)c(F)cc2c(=O)c(C(=O)O)cn(C3CC3)c12 [Moxi, moxifloxacin] | 0.03 µM (≈ 0.012 µg/mL) | – | –
O=[N+]([O-])c1cn2c(n1)OC[C@@H](OCc1ccc(OC(F)(F)F)cc1)C2 [PA824] | 0.1 µM (≈ 0.0359 µg/mL) | – | –
CO[C@H]1/C=C/O[C@@]2(C)Oc3c(C)c(O)c4c(O)c(c(/C=N/N5CCN(C)CC5)c(O)c4c3C2=O)NC(=O)/C(C)=C\C=C\[C@H](C)[C@H](O)[C@@H](C)[C@@H](O)[C@@H](C)[C@H](OC(C)=O)[C@@H]1C [RIF, rifampin] | 0.001 µM (≈ 0.000823 µg/mL) | – | –
CC(C)=CCC/C(C)=C/CNCCNC1C2CC3CC(C2)CC1C3 (centres unmarked) [SQ109] | 0.8 µM (≈ 0.264 µg/mL) | – | –
